A word on the AC50: it is the concentration giving half of the maximal activity seen.

The source of these data is PubChem BioAssay AID463204 (Broad Institute, 2010).

Active and inactive are the calls of the source.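 Rule for the calls: active = AC50 no more than ten times the top concentration tested, that is within one log above it; inconclusive = flat curve fit with activity between 30% and 70%, or invalid poor fit; inactive = AC50 beyond ten times the top tested dose.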

The test system of the test is S. cerevisiae Mot1-301 ts growth rescue, BacTiter-Glo ATP luminescence. The test can be described thus: growth rescue of Mot1-301 ts yeast, confirmation, SUMOylation pathway inhibitor project, whole organism, S. cerevisiae, Mot1-301 ts mutant, luminescence, dose retest (AID 463204).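 Note: growth at restrictive 38.5 degrees C of Mot1-301 OY566 strain; actives raise luminescence by restoring growth of the ts mutant at high temperature.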
As to `CCCCCCCCCCOC(=O)Cn1c(COc2ccccc2OC)[n+](C)c2ccccc21`, the concentration at half-maximal activity (AC50) was 13.4 µM.

In the case of `O=C(NC1CCCC1)C(c1cccs1)N(C(=O)c1ccno1)c1ccccc1` (stereo not drawn), the AC50 is > 42 µM (inactive). `Cc1ccc(Cn2c(NCCc3ccccc3)nc3c2c(=O)n(C)c(=O)n3C)cc1`: the AC50 was > 42 µM (inactive). To `O=C(c1ccc([N+](=O)[O-])o1)N1CCN(c2nc3c(Cl)cccc3s2)CC1` belongs 6.55 µM. To `CCN1CCN(CC(=O)Nc2cccc(C)c2C)C(=O)C1=O` belongs > 42 µM (inactive). As to `CN1/C(=C\C(=O)COC(=O)c2ccc([N+](=O)[O-])o2)C(C)(C)c2ccccc21`, the AC50 is 13.6 µM.

`c1ccc2c(c1)[nH]c1c(N3CCN(C4CCCCC4)CC3)ncnc12`: the AC50 is > 42 µM (inactive). To `O=C(CCNC(=O)c1ccccc1)Nc1cccnc1` belongs > 42 µM (inactive).

For the molecule `Cc1cc(-c2nnc3sc(C4CCCCC4)nn23)n[nH]1`, the AC50 is > 42 µM (inactive). For the molecule `COc1ccc(/C=N\Nc2ccc([N+](=O)[O-])cc2)c(C(=O)O)c1OC`, the AC50 was > 42 µM (inactive).

Turning to `Cc1cccn2c(=O)c3cc(C(=O)NCc4cccnc4)c(=N)n(C(C)C)c3nc12`, the AC50 was > 42 µM (inactive). As to `COc1ccc(C(=O)COc2ccc3ccc(=O)oc3c2)cc1`, the AC50 is > 42 µM (inactive). To `CCCn1nc(C(=O)NNC(=O)c2cc(S(=O)(=O)NC)ccc2Br)c2ccccc2c1=O` belongs > 42 µM (inactive); to `CCN(CC)C(=O)CSc1nnc(SCc2ccc(Cl)cc2)s1`, > 42 µM (inactive). To `CC(NC(=O)c1ccc(Cl)cc1)C(=O)N1CCCCC1` (stereo not drawn) belongs > 42 µM (inactive); to `Cc1ccccc1C(=O)NNC(=O)/C=C\C(=O)O`, > 42 µM (inactive).

In the case of `COc1ccc(C(=O)Nc2ccccc2C(=O)NCCN2CCOCC2)cc1OC`, the AC50 is > 42 µM (inactive). As for `O=C1CN(C(=O)COC(=O)c2ccccc2NCc2ccco2)c2ccccc2N1`, the AC50 is > 42 µM (inactive). To `Cc1ccc(N(C(=O)CCl)C(C(=O)NC2CCCCC2)c2cccnc2)cc1C` (stereo not drawn) belongs 9.72 µM; to `O=C(COC(=O)c1ccc([N+](=O)[O-])o1)Nc1ncc(Cl)cc1Cl`, 9.48 µM; to `Cc1ccnc(NC(c2cccnc2)c2ccc3cccnc3c2O)c1` (stereo not drawn), > 42 µM (inactive). To `COCC(=O)n1nc(-c2ccccc2)nc1NCc1ccc(N(C)C)cc1` belongs > 42 µM (inactive); to `CCN(C(=O)COC(=O)c1c(-c2ccccc2)noc1C)c1c(N)n(Cc2ccccc2)c(=O)[nH]c1=O`, > 42 µM (inactive); to `CC(C)c1nc2n[nH]c(N)c2c2c1CCC2`, > 42 µM (inactive).

Consider `CN(C)c1ccc(/C=C/c2cccc[n+]2[O-])cc1`, for which the AC50 was > 42 µM (inactive). Consider `COc1cc(C(=O)N/N=C/c2ccccn2)cc(OC)c1OC`, for which the AC50 was > 42 µM (inactive).

For `CCN1C(=NCC(C)C)N[C@@H](c2cccc(C(F)(F)F)c2)C(C(=O)OC)=C1C`, the AC50 was > 42 µM (inactive). With `COCCn1c(-c2ccc(Cl)cc2)cnc1SCC(=O)NCCc1ccc(OC)c(OC)c1`, the AC50 was > 42 µM (inactive). `COC(=O)c1c(C)n(Cc2ccc3c(c2)OCO3)c2ccc(O)cc12`: the AC50 is > 42 µM (inactive).

In the case of `NC(=O)C1CCN(C2CC(=O)N(c3ccc(F)c(Cl)c3)C2=O)CC1` (stereo not drawn), the concentration at half-maximal activity (AC50) was 7.8 µM. With `COc1ccc(N2CCN(C3CCCN(Cc4cccc(OC)c4)C3)CC2)cc1` (stereo not drawn), the AC50 was > 42 µM (inactive).

Regarding `O=C(c1ccccc1F)N1CCN=C1SCc1cccnc1`, the AC50 is > 42 µM (inactive). On to `N#Cc1cccc(NC(=O)CSc2n[nH]c(=O)[nH]c2=O)c1`, for which the AC50 is > 42 µM (inactive).

`COc1ccc(C(=O)Nn2c(SCC(=O)NCc3ccccc3)nc3ccccc3c2=O)cc1`: the AC50 was > 42 µM (inactive). For `COc1ccc2c(c1)OC[C@H]1[C@H]2N2C(=O)c3cc(OC)c(OC)cc3NC(=O)[C@@]2(C)[C@H]1c1ccccc1`, the half-maximal activity concentration (AC50) is 5.49 µM. In the case of `Cc1n[nH]c(=O)c2c(NC(=O)COC(=O)Cc3ccc(Cl)cc3Cl)oc(C)c12`, the AC50 is > 21 µM (inactive). On to `Cc1ccc(C)n1-n1cnc2sc3c(c2c1=O)CCCCC3`, for which the AC50 is > 42 µM (inactive).

With `O=C(OC1CCOC1=O)c1cccc(S(=O)(=O)Nc2ccc(F)cc2)c1` (stereo not drawn), the AC50 was > 42 µM (inactive).

In the case of `CCCCNC(=O)N1CCC(CCC(=O)N(C)Cc2ccccc2)CC1`, the AC50 is > 42 µM (inactive). To `COc1ccc(NC(=O)Nc2ccc(OC)cc2)cc1` belongs > 42 µM (inactive); to `O=c1cc(-c2ccccc2)nc(N2CCN(Cc3ccccc3)CC2)[nH]1`, > 42 µM (inactive); to `CN(C)c1ccc(C(CNS(=O)(=O)c2ccc([N+](=O)[O-])cc2)N2CCOCC2)cc1` (stereo not drawn), > 42 µM (inactive). `CN(C(=O)c1ccc(-c2nn(C)c(=O)c3ccccc23)cc1)C1CCCCC1`: the AC50 was > 42 µM (inactive). Regarding `CC1=Nc2ccccc2/C1=C\c1nc(-c2ccccc2)oc1O`, the AC50 was > 42 µM (inactive). Regarding `O=C(CCCNC(=O)/C(=C/c1ccccc1F)NC(=O)c1ccccc1)OCc1ccccc1`, the AC50 is > 42 µM (inactive). To `CC(=O)/C=C/n1c(=S)oc2ccccc21` belongs 11.3 µM; to `Cc1c(NC(C)c2cc(Cl)ccc2O)c(=O)n(-c2ccccc2)n1C` (stereo not drawn), > 42 µM (inactive). To `CC1(C)CC(=O)C(C=Nc2ccc(O)c(N=CC3=C(O)CC(C)(C)CC3=O)c2)=C(O)C1` belongs > 42 µM (inactive). Turning to `Cc1cccc(C)c1NC(=O)C1(N(Cc2ccco2)C(=O)CC2NC(=O)NC2=O)CCCCC1` (stereo not drawn), the AC50 is > 42 µM (inactive). Turning to `CCCS(=O)(=O)N1CCC(C(=O)N2CCc3ccccc3C2)CC1`, the AC50 was > 42 µM (inactive). Take `CC(Oc1ccc([N+](=O)[O-])cc1)C(=O)NCCCN1CCOCC1` (stereo not drawn): the AC50 was > 42 µM (inactive). With `Cn1c(CCN2CCOCC2)nc2cc(NC(=O)COc3ccccc3)ccc21`, the AC50 was > 42 µM (inactive). To `Cc1cccc(Cn2c(C(=O)OC(C)C)cc3c2ccn3C)c1` belongs > 42 µM (inactive); to `NC1=NC(=Nc2ccc(S(N)(=O)=O)cc2)c2ccccc21`, > 21 µM (inactive). As to `CCCCc1ccc(NC(=S)NCc2cccs2)cc1`, the AC50 is 41.9 µM. To `Cc1sc2nc(CN3CCCC3)nc(NCc3ccncc3)c2c1C` belongs > 42 µM (inactive); to `CC1CCCC(C)N1/N=C/c1cc(Br)cc(Br)c1O` (stereo not drawn), 12.5 µM; to `Nc1nc(CSc2nnnn2-c2ccc(Cl)cc2)nc(N2CCOCC2)n1`, > 42 µM (inactive). With `CCc1cc2c(=O)c(-c3nc4ccccc4n3C)c(C)oc2c(CN2CCOCC2)c1O`, the AC50 is > 42 µM (inactive). Regarding `CC(=O)c1cccc(CN2CCCC(N3CCN(c4ccccc4F)CC3)C2)c1` (stereo not drawn), the AC50 is > 42 µM (inactive).

In the case of `Cc1ccccc1-n1ncc2c([N+](=O)[O-])cc([N+](=O)[O-])cc21`, the AC50 was 5.35 µM. As to `CCOC(=O)Cn1c(C)c(Br)c(=O)c2cccc(C)c21`, the AC50 was > 42 µM (inactive). Turning to `S=C(c1ccc(N2CCOCC2)cc1)N1CCCCC1`, the AC50 is > 42 µM (inactive). To `CC(C)[C@H](NC(=O)C1(c2ccccc2)CCN(C(=O)OC(C)(C)C)CC1)C(=O)O` belongs > 42 µM (inactive); to `Cc1cccc(OCC(O)CN2C(C)(C)CC(O)CC2(C)C)c1` (stereo not drawn), > 42 µM (inactive). Consider `CCOc1ccc(CN(C)C(C)C(=O)NCc2ccccc2)cc1` (stereo not drawn), for which the AC50 was > 42 µM (inactive). In the case of `CC(C)c1cc(C(=O)N/N=C/C(Br)=C/c2ccccc2)n[nH]1`, the concentration at half-maximal activity (AC50) was 6.05 µM.

As to `CN(CC(=O)Nc1cccc(F)c1)CC(=O)Nc1cccc(S(N)(=O)=O)c1`, the AC50 was > 110 µM (inactive). On to `Cc1cc(S(=O)(=O)NCC(C)C)ccc1OCC(=O)N1CCOCC1`, for which the AC50 is > 42 µM (inactive).

In the case of `Cc1cc(C(=O)NNC(=O)c2ccc(C)s2)c(C)o1`, the AC50 is > 42 µM (inactive). In the case of `Cc1cc(C(F)(F)F)c(C#N)c(=O)[nH]1`, the AC50 was > 42 µM (inactive). To `Cc1cc(C)nc(-n2nc(C)cc2NC(=O)CNCc2ccccc2)n1` belongs > 42 µM (inactive). To `CCOC(=O)C1(c2ccccc2)CCN(CCC(=O)Nc2ccccc2OC)CC1` belongs > 42 µM (inactive); to `CCc1ccccc1NC(=S)NNC(=O)c1ccccc1Cl`, > 42 µM (inactive); to `Cc1ccc(C(=O)c2cc([N+](=O)[O-])ccc2N2CCCCC2)cc1C`, > 42 µM (inactive). Consider `COc1cccc(-n2c(SCC(=O)NC3CCCCC3)nc3n[nH]c(C)c3c2=N)c1`, for which the AC50 is > 42 µM (inactive). To `Cc1c(Cl)c([N+](=O)[O-])nn1CC(=O)NC12CC3CC(CC(C3)C1)C2` belongs > 42 µM (inactive); to `CCCCCC(=O)NNC1=NCC(Cc2cccc(Cl)c2)S1` (stereo not drawn), > 42 µM (inactive). To `CSc1nncc(/C(C)=N\Nc2cccc(C)c2)n1` belongs > 42 µM (inactive); to `COc1ccc(-c2nc3c(c(SCC(=O)N4CCOCC4)n2)Cc2c(CO)cnc(C)c2O3)cc1`, > 42 µM (inactive); to `Cc1ccc2cccc(OCc3nnc(SCC(=O)O)n3C)c2n1`, > 42 µM (inactive). As for `N#CC(C#N)=CN=c1ccn(Cc2ccc(Cl)cc2Cl)cc1`, the AC50 was > 42 µM (inactive). Consider `COC(=O)Nc1ccc(S(=O)(=O)N2CCCC(C(=O)NC3CCS(=O)(=O)C3)C2)cc1` (stereo not drawn), for which the AC50 was > 42 µM (inactive). As for `COC(=O)c1cc2occc2n1Cc1nc(-c2ccccc2C)oc1C`, the AC50 is > 42 µM (inactive). To `CCNC(=S)Nc1ccc(C)c(S(=O)(=O)Nc2ccccc2OC)c1` belongs > 42 µM (inactive); to `CC(C)=CC(=O)N1CCCC(N2CCN(c3ccc(F)cc3)CC2)C1` (stereo not drawn), > 42 µM (inactive).

Turning to `COc1ccccc1OCCSc1nc2ccccc2n1CCC(=O)O`, the AC50 is > 42 µM (inactive). To `CCC1=Nc2cc(C(=O)NCc3ccco3)ccc2Sc2ccccc21` belongs > 42 µM (inactive).
